This passage reports IC50, Antagonism and Response results from ChEMBL document CHEMBL1129670, “Synthesis and structure-activity relationships of N-propyl-N-(4-pyridinyl)-1H-indol-1-amine (besipirdine) and related analogs as potential therapeutic agents for Alzheimer's disease” (J Med Chem, 1996).

The target in test [1] is T1, Adrenergic receptor alpha-2 (Rattus norvegicus, UniProt P22086+P19328+P22909).
T1 sequence (P22086 whole entry): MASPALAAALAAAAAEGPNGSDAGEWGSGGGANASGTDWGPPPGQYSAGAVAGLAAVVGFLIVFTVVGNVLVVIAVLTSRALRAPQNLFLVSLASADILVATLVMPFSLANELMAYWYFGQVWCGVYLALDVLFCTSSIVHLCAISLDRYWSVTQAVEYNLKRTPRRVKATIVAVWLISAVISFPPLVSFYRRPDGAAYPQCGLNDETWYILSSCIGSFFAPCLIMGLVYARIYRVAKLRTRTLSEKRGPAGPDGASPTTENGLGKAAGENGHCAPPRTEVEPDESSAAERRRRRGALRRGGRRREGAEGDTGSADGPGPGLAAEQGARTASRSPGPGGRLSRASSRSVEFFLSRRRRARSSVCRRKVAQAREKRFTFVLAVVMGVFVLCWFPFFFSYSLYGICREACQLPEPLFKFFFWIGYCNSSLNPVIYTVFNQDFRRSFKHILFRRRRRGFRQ
T1 sequence (P19328 whole entry): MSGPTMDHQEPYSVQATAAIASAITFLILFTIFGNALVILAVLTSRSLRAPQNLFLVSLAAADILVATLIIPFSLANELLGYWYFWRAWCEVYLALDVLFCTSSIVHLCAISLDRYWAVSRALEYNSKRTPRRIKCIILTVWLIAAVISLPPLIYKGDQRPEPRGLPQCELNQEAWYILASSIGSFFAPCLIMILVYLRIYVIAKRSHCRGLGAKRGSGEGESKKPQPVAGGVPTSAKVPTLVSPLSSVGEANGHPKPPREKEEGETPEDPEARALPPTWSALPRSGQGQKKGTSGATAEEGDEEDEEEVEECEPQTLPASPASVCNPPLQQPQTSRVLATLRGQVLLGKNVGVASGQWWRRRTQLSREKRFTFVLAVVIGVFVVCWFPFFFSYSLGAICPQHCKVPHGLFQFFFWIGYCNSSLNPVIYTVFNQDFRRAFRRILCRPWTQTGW
T1 sequence (P22909 whole entry): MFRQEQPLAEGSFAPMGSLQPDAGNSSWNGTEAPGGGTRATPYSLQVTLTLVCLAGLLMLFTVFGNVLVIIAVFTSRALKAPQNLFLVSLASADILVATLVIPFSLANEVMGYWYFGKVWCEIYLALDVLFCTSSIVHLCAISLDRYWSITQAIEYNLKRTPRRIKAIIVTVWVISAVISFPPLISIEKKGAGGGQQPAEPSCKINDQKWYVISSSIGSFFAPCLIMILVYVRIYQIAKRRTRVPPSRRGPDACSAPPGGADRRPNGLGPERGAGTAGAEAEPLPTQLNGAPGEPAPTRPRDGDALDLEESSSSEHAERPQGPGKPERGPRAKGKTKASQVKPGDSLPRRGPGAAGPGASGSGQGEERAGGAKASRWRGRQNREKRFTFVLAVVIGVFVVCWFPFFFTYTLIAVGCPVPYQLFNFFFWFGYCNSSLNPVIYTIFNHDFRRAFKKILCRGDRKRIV
In words: Inhibitory activity against [3H]clonidine binding to Alpha-2 adrenergic receptor in rat cortex.

Test [2] is filed under the species Mus musculus. In words: Antagonistic activity against Scopolamine induced behavioral deficits in mice; 3/9. It is filed as functional.
Test [3] relates to Mus musculus. As to the kind of experiment: Antagonistic activity against Scopolamine induced behavioral deficits in mice at dose 0.02 mg/kg sc. It counts as functional. The conditions noted are these: route subcutaneous.
Test [4] concerns Mus musculus. As to the kind of experiment: Antagonistic activity against Scopolamine induced behavioral deficits in mice at dose 0.04 mg/kg sc. It is filed as functional. The conditions noted are these: route subcutaneous.
The target in test [5] is Muscarinic acetylcholine receptor. It counts as cell membranes, Membrane.
Description: Inhibition of [3H]quinuclidinyl benzilate (QNB) binding from rat forebrain membranes in the absence of Zn
Test [6] relates to Mus musculus. In words: Antagonistic activity against Scopolamine induced behavioral deficits in mice at dose 0.16 mg/kg sc. It counts as functional. The conditions noted are these: route subcutaneous.
Test [7] concerns the target T2, Acetylcholinesterase (Rattus norvegicus, UniProt P37136).
T2 sequence (P37136 whole entry): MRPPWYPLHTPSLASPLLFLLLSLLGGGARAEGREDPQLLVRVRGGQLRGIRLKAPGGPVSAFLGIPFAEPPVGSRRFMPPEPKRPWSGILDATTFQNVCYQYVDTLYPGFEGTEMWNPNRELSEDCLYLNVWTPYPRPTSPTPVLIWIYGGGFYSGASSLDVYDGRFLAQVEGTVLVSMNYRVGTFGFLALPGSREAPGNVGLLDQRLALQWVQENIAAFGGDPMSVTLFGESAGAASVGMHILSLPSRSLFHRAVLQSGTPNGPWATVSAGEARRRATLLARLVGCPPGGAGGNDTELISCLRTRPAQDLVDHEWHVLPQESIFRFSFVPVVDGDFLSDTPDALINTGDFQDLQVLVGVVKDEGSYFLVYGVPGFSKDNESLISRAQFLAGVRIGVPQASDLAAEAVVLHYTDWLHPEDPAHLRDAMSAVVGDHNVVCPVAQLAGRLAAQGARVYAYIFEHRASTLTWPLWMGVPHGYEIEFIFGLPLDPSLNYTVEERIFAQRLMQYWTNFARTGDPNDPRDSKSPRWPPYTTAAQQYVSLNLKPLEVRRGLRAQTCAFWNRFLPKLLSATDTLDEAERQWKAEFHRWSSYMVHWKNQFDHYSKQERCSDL
As to the kind of experiment: Inhibitory activity against Acetylcholinesterase in rat striatum. It is filed as tissue-based.

For test [8], the target named is T1, Adrenergic receptor alpha-2. As to the kind of experiment: Inhibitory activity against [3H]-idazoxan binding to Alpha-2 adrenergic receptor in rat cortex.
The target is the same in test [9]. In words: Inhibitory activity against [3H]idazoxan binding to Alpha-2 adrenergic receptor in rat cortex, in the presence of GPP.
The species named for test [10] is Mus musculus. In words: Antagonistic activity against Scopolamine induced behavioral deficits in mice; 5/6. It is filed as functional.
Test [11] has as its target Muscarinic acetylcholine receptor. In words: Inhibitory activity against [3H]oxotremorine-M binding to muscarinic receptors in rat forebrain membrane. It is filed as cell membranes.
The target in test [12] is Neuronal acetylcholine receptor. In words: Inhibitory activity against [3H]-NMCC binding to nicotinic receptors in rat cortex.
Test [13] addresses Glutamate NMDA receptor. In words: Inhibitory activity against [3H]-CPP binding to NMDA receptor in rat cortex.
Test [14] has as its target Mu-type opioid receptor (Rattus norvegicus, UniProt P33535). As to the kind of experiment: Inhibitory activity against [3H]DHM binding to mu opioid receptor in rat whole brain.
Test [15] concerns the target D(2) dopamine receptor (Rattus norvegicus, UniProt P61169). As to the kind of experiment: Inhibitory activity against [3H]spiroperidol bingind to Dopamine receptor D2 in rat striatum. It counts as tissue-based.
The species entered for test [16] is Mus musculus. The conditions noted are these: dose 0.63 mg/kg; route subcutaneous.
Description: Antagonistic activity against Scopolamine induced behavioral deficits in mice at dose 0.63 mg/kg sc

Mu-type opioid receptor, sequence (P33535 whole entry): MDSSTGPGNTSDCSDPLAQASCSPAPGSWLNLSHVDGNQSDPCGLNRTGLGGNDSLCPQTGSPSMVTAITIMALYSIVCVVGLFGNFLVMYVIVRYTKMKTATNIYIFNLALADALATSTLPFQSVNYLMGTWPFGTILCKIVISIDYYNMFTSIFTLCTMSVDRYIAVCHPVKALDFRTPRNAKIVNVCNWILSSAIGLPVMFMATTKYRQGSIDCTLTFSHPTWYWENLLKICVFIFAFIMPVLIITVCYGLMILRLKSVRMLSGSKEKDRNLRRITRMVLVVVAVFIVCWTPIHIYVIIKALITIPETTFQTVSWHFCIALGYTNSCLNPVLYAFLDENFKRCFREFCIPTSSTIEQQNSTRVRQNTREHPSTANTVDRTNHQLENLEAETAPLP
D(2) dopamine receptor, sequence (P61169 whole entry): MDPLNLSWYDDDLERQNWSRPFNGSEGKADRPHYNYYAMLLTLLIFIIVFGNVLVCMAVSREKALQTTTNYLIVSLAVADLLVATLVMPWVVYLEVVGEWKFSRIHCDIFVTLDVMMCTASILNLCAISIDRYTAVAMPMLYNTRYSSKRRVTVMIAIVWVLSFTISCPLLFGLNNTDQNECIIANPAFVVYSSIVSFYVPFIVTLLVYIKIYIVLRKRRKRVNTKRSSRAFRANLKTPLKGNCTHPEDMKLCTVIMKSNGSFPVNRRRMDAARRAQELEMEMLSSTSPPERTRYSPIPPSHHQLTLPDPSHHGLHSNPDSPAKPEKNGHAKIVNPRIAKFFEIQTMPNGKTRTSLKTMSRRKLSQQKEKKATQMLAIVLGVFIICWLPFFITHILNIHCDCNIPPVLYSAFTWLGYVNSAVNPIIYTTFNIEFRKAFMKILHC

As usually defined, the IC50 is the point on the concentration scale where inhibition reaches its midpoint. As to `CN(c1ccncc1)n1ccc2ccccc21`, the IC50 in test [1] amounted to 24 nM; in test [5], 9000 nM. The compound further showed an Antagonism in test [2] of 3. Further, the Response was found to be 33% in test [3] and 53% in test [4].
Regarding `c1ccc2c(c1)ccn2Nc1ccncc1`, the IC50 was found to be 8 nM in test [1] and 40000 nM in test [5]. Moreover, the Antagonism in test [2] is 3. The figures for the Response in test [3] and in [6] were 27% and 23%, respectively.
Regarding `CCCN(c1ccncc1)n1ccc2ccccc21` [BESIPIRDINE], the IC50 in [7] was greater than 100000 nM; in test [1] it was 330 nM; in test [8], 470 nM; in test [9] it was 140 nM; in test [5], 3000 nM; in test [11] it was 460 nM. In addition, the IC50 in test [12] was greater than 20000 nM; in test [13] it was greater than 20000 nM; in [14] it was greater than 1000 nM; in test [15], greater than 20000 nM. In addition, in [10], the Antagonism is on record as 5. In addition, the Response in test [3] worked out at 24%; in test [4], 30%; in test [6], 27%; in test [16], 40%.
